# Data taken from publication PMC4553411, “Identification of B6T173 (ZmPrx35) as the prevailing peroxidase in highly insect-resistant maize (Zea mays, p84C3) kernels by activity-directed purification” (Frontiers in Plant Science, 2015).
# Biological target: T1, B6T173 (ZmPrx35) (Zea mays, UniProt B6T173)
# T1 construct: recombinant from p84C3 cDNA, amplified from start codon to stop codon, pET19b (His-tag), E. coli BL21 (DE3) Rosetta gami; class III peroxidase
# Assay: in-gel guaiacol-H2O2 activity staining of IMAC fractions
# Format: biochemical
# Settings: H2O2 co-substrate; 20 mM guaiacol, 50 mM phosphate pH 6.8
# T1 sequence (B6T173 1-339): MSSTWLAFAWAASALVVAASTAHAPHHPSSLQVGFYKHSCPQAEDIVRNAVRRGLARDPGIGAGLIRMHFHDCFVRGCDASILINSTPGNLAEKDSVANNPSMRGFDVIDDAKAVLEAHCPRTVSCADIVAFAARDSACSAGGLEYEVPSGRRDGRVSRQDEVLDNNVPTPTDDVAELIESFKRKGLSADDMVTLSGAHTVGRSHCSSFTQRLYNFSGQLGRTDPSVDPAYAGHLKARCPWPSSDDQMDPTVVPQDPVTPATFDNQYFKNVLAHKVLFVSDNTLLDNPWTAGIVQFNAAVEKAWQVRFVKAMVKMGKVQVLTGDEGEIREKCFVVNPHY
structure (smiles),measurement,value
COc1ccccc1O [guaiacol],in-gel guaiacol-H2O2 activity staining of IMAC fractions,Guaiacol-H2O2 staining of the same POD fractions
